# Results from paper PMC8895007, “Crystal structures of PigF, an O-methyltransferase involved in the prodigiosin synthetic pathway, reveal an induced-fit substrate-recognition mechanism” (IUCrJ, 2022).
# Tests used:
# [1] = biological target: T1, PigF (Serratia marcescens, UniProt Q5W249); test: X-ray crystal structure (co-crystallisation), […] A; assay type: binding; details: 2 mM SAH premixed 30 min; pH 4.6, 12% MPD; cofactor site in C-terminal catalytic domain
# T1 construct: residues 3-338 seen in SAH complex
# [2] = biological target: the molecule itself; test: native gel or EMSA; nondenaturing gel, comparison with standards; PigF in solution
Molecule,"X-ray crystal structure (co-crystallisation), 1.97 A [1]",stoichiometry N [2]
Nc1ncnc2c1ncn2[C@@H]1O[C@H](CSCC[C@H](N)C(=O)O)[C@@H](O)[C@H]1O [S-adenosylhomocysteine],the resulting phased map revealed clear electron density for the entire protein molecule and the SAH cofactor,
"PigF, O-methyltransferase of the prodigiosin synthetic pathway from Serratia marcescens FS14 (enzyme, PigF of Serratia marcescens FS14, 338 amino-acid residues; 100% identical to PigF of S. marcescens VGH107 (NCBI WP 004940222.1); residues 3-338 are seen in both chains of the PigF-SAH structure; Cloned into pET-24b as in Liu et al., 2012; The results call the protein N-terminally polyhistidine-tagged; pET-24b usually adds a C-terminal His tag (surmise); Crystallised with 2 mM SAH (small molecule) …) MPLTKQDAVNQMMGFFQAKALTAALALKLFDQLRDRDADAAHIAARLDCPARSTEQLLIALRAMGYLDQRDGLYHLPAAHRAFLLSDEPQWLGWLGRHIDTFLYPLWGELKTAVRNDAHQRRTVFGDDRSWFDILYQNPDDVADFQEFLGKFAAPFIAGFVRDYDFSQHRAFLDIGSGIGSLPMAIADAYPGIALAICELPQASAFLRDKLTLQGYGERIDVVEGDVISGDLPIGGYDLIHLGWMLHDYAPETQLTILRNIYRAMPAGGRFIASETPLNEDKSGPEFTALLSLNMLVSTDGGIESSAQEYLDRFRLAGFSNARIMKIAGPRTLIVGEK",,2
